Values quoted from earlier work in US5545628A, “Pharmaceutical composition containing fenofibrate” (priority 1995, dated 1996).

absorption as metabolite (oral) | excretion (fenofibric acid, mainly as the glucuronide conjugate) | SMILES
absorbed as fenofibric acid |  | CC(C)OC(=O)C(C)(C)Oc1ccc(C(=O)c2ccc(Cl)cc2)cc1 [Fenofibrate, P-(4-chlorobenzoyl)-phenoxy isobutyrate isopropyl ester]
 | excreted predominantly in the urine | CC(C)(Oc1ccc(C(=O)c2ccc(Cl)cc2)cc1)C(=O)O [Fenofibric acid]
